What was measured:
Type in all cases: cell-based
[1] = system: HCT-116 colon cancer cells; assay: Antiproliferative activity, growth inhibition (MTS/WST assay); conditions: Homo sapiens, 72 hour growth inhibition, read-out: GI50 HCT116
Description: The novel compounds of the present invention were tested for their ability to inhibit growth of various cancer cell lines (HeLa, MCF7, U2OS, HepG2, HL60, HCT-116) using in vitro growth inhibition assays described below.
Cells were seeded in 96-well culture plates (200 microliters/well at different seeding concentrations depending on cell type) and incubated overnight at 37 degrees Celsius in 5% CO2. After adding compound dilutions to the cells (DMSO concentration kept below 0.5%), the cells were incubated at 37 degrees Celsius in 5% CO2 for 72 hours. The effects on proliferation were determined by addition of MTS reagent (Promega) according to the manufacturer's instruction, followed by incubation for 2 hours at 37 degrees Celsius in 5% CO2, and finally recording the absorbance at 490 nm using an ELISA plate reader.
Similar to MTS assay except that the developer is the CCK-8 reagent (Dojindo) and the plate reader is set to 450 nm absorbance.
GI50 values against HCT-116 colon cancer cells for specific representative compounds can be found in Table 4.

[2] = system: p21 promoter-luciferase construct in HeLa cells; assay: p21 reporter gene induction; conditions: 3 micromolar, 15 hours, relative to SNDX-275
Description: (§1) The novel compounds of the present invention were tested for their ability to induce p21 gene expression using a reporter gene assay involving HeLa cells transfected with a p21 promoter-luciferase construct. The p21 promoter contained the Sp1/Sp3 binding site for HDAC but not the upstream p53 binding site. Briefly, the day before transfection, HeLa cells were seeded at 11,000 cells/well in a 96-well culture plate and incubated at 37 degrees Celsius in 5% CO2 overnight. For transfection, the medium was removed and replaced with 100 microliters/well transfection media previously prepared as follows: 5 microliters serum-free DMEM, 0.15 microliters Fugene 6 reagent, 40 ng p21-luc, 10 ng GFP were mixed gently and incubated at room temperature for 30 minutes; then 98 microliters DMEM (with 10% FBS, 1% penicillin and streptomycin) was added to the DNA:Fugene 6 reagent complex and mixed gently. After incubating the cells for 24 hours at 37 degrees Celsius in 5% CO2, fresh media and test compounds were added to the wells and the cells further incubated for 15 hours at 37 degrees Celsius in 5% CO2. Cells were lysed by adding 80 microliters/well of a cell culture lysis reagent (Promega). 50 microliters of each lysate was taken for GFP detection using an excitation wavelength of 486 nm and detection at 527 nm. 100 microliters Luciferase assay reagent (Promega) was then added to every 20 microliters cell lysate for luminometer detection. […] Induction activity for specific representative compounds can be found in Table 4.

[3] = system: klf2 promoter-luciferase construct in A204 cells; assay: klf2 reporter gene induction (p21 versus klf2 selectivity); conditions: SNDX-275 p21/klf2 ratio defined as 1.0; for p21/klf2 (RP3): relative selectivity compared with SNDX-275: 3 micromolar; for p21/klf2 (RP10): relative selectivity compared with SNDX-275: 10 micromolar
Description: as §1
The novel compounds of the present invention were tested for their ability to induce klf2 gene expression using a reporter gene assay involving A204 cells transfected with a klf2 promoter-luciferase construct. The klf2 promoter contained the MEF2 binding site for HDAC3/class IIa HDAC complex. Briefly, the day before transfection, A204 cells were seeded at 11,000 cells/well in a 96-well culture plate and incubated at 37 degrees Celsius in 5% CO2 overnight. For transfection, the medium was removed and replaced with 100 microliters/well transfection media previously prepared as follows: 5 microliters serum-free DMEM, 0.15 microliters Fugene 6 reagent, 40 ng klf2-luc, 10 ng GFP were mixed gently and incubated at room temperature for 30 minutes; then 98 microliters DMEM (with 10% FBS, 1% penicillin and streptomycin) was added to the DNA:Fugene 6 reagent complex and mixed gently. After incubating the cells for 24 hours at 37 degrees Celsius in 5% CO2, fresh media and test compounds were added to the wells and the cells further incubated for 15 hours at 37 degrees Celsius in 5% CO2. Finally, 10 ng/ml TNF-α was added and the cells further incubated for 4 hours. Cells were lysed by adding 80 microliters/well of a cell culture lysis reagent (Promega). 50 microliters of each lysate was taken for GFP detection using an excitation wavelength of 486 nm and detection at 527 nm. 100 microliters Luciferase assay reagent (Promega) was then added to every 20 microliters cell lysate for luminometer detection.

| GI50 [1] | SMILES | p21 (RP3): relative induction potency compared with SNDX-275 [2] | p21/klf2 (RP3): relative selectivity compared with SNDX-275 [3] | p21/klf2 (RP10): relative selectivity compared with SNDX-275 [3] |
| --- | --- | --- | --- | --- |
| 900 nM | Nc1ccccc1NC(=O)/C=C/c1ccc(C(NCCN2CCOCC2)C(=O)Nc2ccc(Cl)cc2)cc1 (stereo not drawn) [Example 30-33, (E)-N-(2-Amino-phenyl)-3-{4-[(4-chloro-phenylcarbamoyl)-(2-morpholin-4-yl-ethylamino)-methyl]-phenyl}-acrylamide] | 193% | 2.1 | 1.2 |
| 1000 nM | Cc1ccc(NC(=O)C(NCCN2CCOCC2)c2ccc(/C=C/C(=O)Nc3ccccc3N)cc2)cc1 (stereo not drawn) [Example 30-54, (E)-N-(2-Amino-phenyl)-3-{4-[(2-morpholin-4-yl-ethylamino)-p-tolylcarbamoyl-methyl]-phenyl}-acrylamide] | 183% | 2.0 | 1.3 |

The remaining lines, values behind:

| SMILES | GI50 [1] | p21 (RP3): relative induction potency compared with SNDX-275 [2] | p21/klf2 (RP3): relative selectivity compared with SNDX-275 [3] | p21/klf2 (RP10): relative selectivity compared with SNDX-275 [3] |
| --- | --- | --- | --- | --- |
| C[C@@H]1CN(CCNC(C(=O)Nc2ccc(C(F)(F)F)cc2)c2ccc(/C=C/C(=O)Nc3ccccc3N)cc2)C[C@H](C)O1 (stereo partly drawn) [Example 9-28, (E)-N-(2-Amino-phenyl)-3-{4-[[2-((2R,6S)-2,6-dimethyl-morpholin-4-yl)-ethylamino]-(4-trifluoromethyl-phenylcarbamoyl)-methyl]-phenyl}-acrylamide] | 1800 nM | 33% | 0.5 | 0.9 |
| Nc1ccccc1NC(=O)/C=C/c1ccc(C(C(=O)Nc2ccc(C(F)(F)F)cc2)N2CCCCC2)cc1 (stereo not drawn) [Example 9-29, (E)-N-(2-Amino-phenyl)-3-{4-[piperidin-1-yl-(4-trifluoromethyl-phenylcarbamoyl)-methyl]-phenyl}-acrylamide] | 7100 nM | 10% | 0.3 | 0.5 |
| Nc1ccccc1NC(=O)/C=C/c1ccc(C(OCCN2CCOCC2)C(=O)Nc2ccc(C(F)(F)F)cc2)cc1 (stereo not drawn) [Example 19, (E)-N-(2-Amino-phenyl)-3-{4-[(2-morpholin-4-yl-ethoxy)-(4-trifluoromethyl-phenylcarbamoyl)-methyl]-phenyl}-acrylamide] | 2200 nM | 98% | 1.6 | 3.6 |
| Nc1ccccc1NC(=O)/C=C/c1ccc(C(NCCN2CCOCC2)C(=O)Nc2ccc(C(F)(F)F)cc2)cc1 (stereo not drawn) [Example 30, (E)-N-(2-Amino-phenyl)-3-{4-[(2-morpholin-4-yl-ethylamino)-(4-trifluoromethyl-phenylcarbamoyl)-methyl]-phenyl}-acrylamide] | 800 nM | 100% | 1.3 | 3.9 |

Reference: patent US7795315B2, “N-(2-amino-phenyl)-amide derivatives” (Hoffman-La Roche Inc., priority 2008, dated 2010)
